The results in this text go back to patent US20230329284A1, “BEE ANTIVIRAL COMPOSITIONS” (priority 2022, published 2023).

Assay [1] relates to Deformed wing virus (DWV). In words: Fluorescent determination of bee viral titers with nano-luciferase-expressing DWV construct. In kind it is in vivo, bees. As to conditions: for Average Fluorescence, Average Counts: single treatment with 10^5 copies DWV, average of nine bees, DWV alone 111.366, PBS 1.687; for viral load of DWV-infected bees compared with DWV control: low, medium, or high doses. The procedure:
A fluorescent assay was performed to determine the effects of different treatments on bee viral load.
Bees were treated once with different doses of methyl jasmonate while simultaneously receiving an effective does (10^5 copies) of Deformed wing virus (DWV). The methyl jasmonte was at low dose (MJL), medium dose (MJM), or high dose (MJH). Additional bees were treated with thymol solution in low dose (TL), medium dose (TM), and high dose (TH). The infective virus dose comprised a viral construct that expressed nano-luciferase, allowing direct quantification of viral loads via spectrophotometer. As a negative control, phosphate buffered saline (PBS) solution was used alone. As a positive control, bees were infected with 10^5 DWV alone. Measurements were repeated nine times in nine different bees, and an average calculated.

The test system of the next assay is VDV. In words: Methyl jasmonate feeding of naturally VDV-infected adult honey bees, VDV load per bee by qPCR (ΔCq). It is filed as in vivo. As to conditions: for decrease in VDV titers compared to control bees (sugar alone) / mean change in quantification cycle value of VDV per bee (ΔCq) / decrease in VDV titers compared to control bees / mean ΔCq of VDV per bee: FIG. 1; for decrease in VDV titers compared to control bees (sugar alone) / mean change in quantification cycle value of VDV per bee (ΔCq): day 7; for mean change in quantification cycle value of VDV per bee (ΔCq): control 3.9 (+/-3.5); for decrease in VDV titers compared to control bees / mean ΔCq of VDV per bee: day 12; for mean ΔCq of VDV per bee: control 7.8 ( +/- 2.8). On the procedure:
The effect on viral load of methyl jasmonate (MeJA) treatment on virally-infected bees was tested after 7 days and after 12 days of feeding sugar or sugar + MeJA.
Adult honey bees were reared in cages and fed either sucrose solution, 100 ppm MeJA dissolved in sucrose solution, or 500 ppm of MeJA dissolved in sucrose solution. Bees’ genetic material was individually examined by qPCR for normalized VDV loads at 7 days and 12 days after the start of MeJA treatment. Standard box plots include a dotted line that represents the mean, and each point represents an individual bee from one of various cages per treatment. VDV was not administered artificially and is from a natural infection. Levels of DWV-A, a recombinant variant of VDV, were too low in the specimen for quantification. A higher Δ Cq indicates […] VDV present in the specimen. For Day 7,
A second efficiency test was performed where VDV-infected adult bees were fed 100 ppm of MeJA dissolved in sucrose solution. As a control, only sucrose solution was administered.
On the technique in general: Quantitative PCR measures a nucleic acid by following its amplification.

The next assay relates to deformed wing virus. In words: Screen of plant compounds for effect on bee viral loads in live bees. In kind it is in vivo, honey bee. As to conditions: for deformed wing virus levels (viral loads), dose response: FIG. 6; for antiviral activity in live bee trials: live bees exposed to natural products derived from plants. On the procedure:
A total of 140 compounds were screened for their effect on bee viral loads.
All compounds are selected from food-safe (GRAS, generally recognized as safe by the US FDA) libraries and were tested in live bees to assess adverse impacts to bee health. Trials were carried out using live bees exposed to natural products derived from plants. […] Thymol and octanoic acid blends are being tested to assess possible synergies prior to field trials.

For `CC/C=C\CC1C(=O)CCC1CC(=O)OC` (stereo not shown) [MeJA, Methyl jasmonate], the results for the “Average Fluorescence, Average Counts” value in assay [1] (high dose), in assay [1] (low dose) and in assay [1] (medium dose) were 68.246, 76.120 and 83.905, respectively. Moreover, the “viral load of DWV-infected bees compared with DWV control” value in assay [1] is “lower viral load”. The “decrease in VDV titers compared to control bees (sugar alone)” value is given as 11.5% in the assay with VDV (sugar + 100 ppm MeJA) and 97.8% in the assay on VDV (sugar + 500 ppm MeJA). Besides, the “mean change in quantification cycle value of VDV per bee (ΔCq)” value in the assay on VDV (sugar + 100 ppm MeJA, higher ΔCq = more VDV) is given as 3.45 (+/- 4.8); in the assay with VDV (sugar + 500 ppm MeJA), 0.085 (+/- 6.16). Moreover, the “decrease in VDV titers compared to control bees” value was 33.3% in the assay with VDV (sugar + 100 ppm MeJA) and 52.6% with VDV (sugar + 500 ppm MeJA). The “mean ΔCq of VDV per bee” value in the assay with VDV (sugar + 100 ppm MeJA) is 5.2 ( +/- 4.9); in the assay on VDV (sugar + 500 ppm MeJA), 3.7 ( +/- 5.3). Also, the “decrease in VDV titers compared to bees fed sugar alone (using the mean)” value is on record as 7.1% in the assay with VDV (FIG. 3, Day 7, sugar + 500 ppm MeJA) and 21.9% with VDV (second efficiency test, FIG. 2, Day 7, sugar + 100 ppm MeJA). Further, the “median Cq” value in the assay on VDV (FIG. 3, Day 7, sugar + 500 ppm MeJA, control 7.1) turned out to be 6.1. Besides, the “mean Cq” value with VDV (FIG. 3, Day 7, sugar + 500 ppm MeJA, spread 2.1, control 7.0) worked out at 6.5. Further, in the assay on VDV (second efficiency test, FIG. 2, Day 7, sugar + 100 ppm MeJA, control 4.17), the “median ΔCq” value was determined as 1.33. The “mean ΔCq” value in the assay on VDV (second efficiency test, FIG. 2, Day 7, sugar + 100 ppm MeJA, std dev. 3.8, control 3.2) is reported as 2.5. In addition, the “viral levels compared with bees fed sugar alone” value with VDV (treated for 12 days with sugar + MeJA) is listed as “significantly lower viral levels”. Further, the “deformed wing virus levels (viral loads), dose response” value (“deformed wing virus levels” below) with deformed wing virus (higher levels, 1 mM or 10 mM) is listed as “dose response in viral loads”. In addition, the “antiviral activity in live bee trials” value in the assay on deformed wing virus was “antiviral activity”.
Take `COc1cc(/C=C/C(=O)O)ccc1O` [ferulic acid, Ferulic acid]: in the assay with deformed wing virus (low levels, 0.1 mM), the “deformed wing virus levels” value is “dose response in viral loads”. Besides, the “antiviral activity in live bee trials” value in the assay with deformed wing virus is reported as “antiviral activity”.
Turning to `CCCCCCCC(=O)O` [octanoic acid], the “deformed wing virus levels” value with deformed wing virus (higher levels, 10 mM and 100 mM) is reported as “dose response in viral loads”. Besides, the “antiviral activity in live bee trials” value with deformed wing virus is recorded as “antiviral activity”.
On to `Cc1ccc(C(C)C)c(O)c1` [thymol, 2-isopropyl-5-methylphenol], for which the figures for the “Average Fluorescence, Average Counts” value in assay [1] (high dose), in assay [1] (low dose) and in assay [1] (medium dose) were 63.290, 67.092 and 72.992, respectively. Also, the “viral load of DWV-infected bees compared with DWV control” value in assay [1] is recorded as “lower viral load”. The “high-intensity infections (viral levels above threshold)” value with deformed wing virus (FIG. 5, across 3000 honey bee trials) is recorded as “quantitative reduction of high-intensity infections”. In addition, in the assay with deformed wing virus, the “antiviral activity in live bee trials” value is “antiviral activity”.
